We go through five molecules from publication PMC8958505, “Discovery of Potential Neuroprotective Agents against Paclitaxel-Induced Peripheral Neuropathy” (Journal of Medicinal Chemistry, 2022).

The subject of data set [1] is mouse primary DRG neurons. The experiment in a line: Neurite outgrowth assay of DRG neurons (image-based HCS) against paclitaxel-induced neurotoxicity. In kind it is cell-based. The conditions noted are these: for activation at 1 µM: Mus musculus, DRG neuron. The protocol:
All these 19 compounds were then subjected to the neurite outgrowth assay of dorsal root ganglion (DRG) neurons paired with an image-based HCS to analyze whether they had neuroprotective potential. Quantification of neurite outgrowth under different regimens is shown in Figure 3, wherein DRG neurons incubated in 50 nM paclitaxel could cause 60% reduction in neurite outgrowth compared to the control (no drug treatment). […] Taken together, CN016 is selected as a promising lead for further development.
Primary cortical or DRG cells were fixed with 4% paraformaldehyde for 15 min following compound and paclitaxel treatment. After washing with PBS, the fixed cells were permeabilized with PBS containing 0.05% Triton X-100 for 20 min and then blocked with commercial blocking buffer (#GTX30963; GeneTex, USA) at room temperature for 1 h. Subsequently, the cortical cells were stained for the extending processes and synaptic puncta by using anti-MAP2 (#MBS502140, 1:500; Mybiosource, USA) and anti-synaptophysin (#ab32127, 1:500; Abcam, UK) overnight. DRG cells were stained for the neurite and neuron nucleus by using anti-β III tubulin (#D71G9, 1:600; Cell Signaling, USA) and anti-NeuN monoclonal antibody (#MAB377, 1:400; Millipore, USA) overnight. On the second day, the samples were washed for 30 min with wash buffer and incubated with secondary antibodies (Alexa-488, 647 1:600; Thermo Fisher, USA) and 4 μg/mL Hoechst 33258 (#94403-1ML, 1:100; Merck, USA) at room temperature for 1 h. In the initial experiments of screening the potential neuroprotective compound for CIPN, ImageXpress^Micro (IXM) high-content imaging system (Molecular Devices, USA) driven by MetaXpress software was used. Images of treated cells were automatically acquired by using a 10× objective. Twenty-one images per well were taken in each of three channels (DAPI, FITC, and Cy5) to create a whole view of the entire neural network. The integrity of the neural network was evaluated using TIF images by importing them into MetaXpress software for analysis using the module for multiparameter, such as Neurite Outgrowth, Cell Scoring, and Transfluor. Furthermore, the score of synaptogenesis was analyzed in AcuityXpress software (Molecular Devices, USA).

In the next data set the test system is sciatic nerve fibers. The experiment in a line: Ultrastructure evaluation of the sciatic nerve (TEM). Type of data set: in vivo, mouse. As to conditions: paclitaxel 4.5 mg/kg x 4. An excerpt: Sciatic nerves were isolated from mice after drug treatment and behavioral tests to examine the ultrastructure of nerve fibers. […] To evaluate the integrity of myelin, we calculated the G-ratio (axon perimeter/myelin perimeter) in different treatment groups. Because the symptoms of PIPN mostly manifest with sensory impairment,[28] we roughly classified nerve fibers into larger fibers (diameter > 5 μm) and small fibers (diameter < 5 μm) depending on the type of sensory information conveyed.[29] Large fibers with greater than 5 μm diameter carry information related to proprioception, touch, and pressure. In contrast, small fibers with less than 5 μm diameter carry information related to temperature and pain.
Sciatic nerve samples from mice from each treatment group were isolated after the last time point of mouse behavioral tests. Fixation of sciatic nerves with 4% glutaraldehyde and post fixation with 1% osmium tetroxide solution at 4 °C were performed. […] Transmission electron microscopy (H7650, Hitachi) was used to observe the ultrastructure in the cross section of the sciatic nerves.

Data set [2] has as its system paclitaxel-induced neuropathy in mice. The arrangement: method as in PMID 28349969. The conditions noted are these: up to 25 mg/kg; cited from earlier work.
Data set [3] relates to primary cortical neurons. The experiment in a line: Neurite outgrowth assay of primary cortical neurons (image-based HCS) against paclitaxel-induced neurotoxicity. As to conditions: Mus musculus, Primary cortical neuron; test compound 1000 nM + paclitaxel 1 μM; mean ± SE; read-out: D: Neurite outgrowth (% of control) of test compound (1000 nM) + paclitaxel (1 μM). Type of data set: cell-based, mouse. The procedure, abridged: (§1)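 Cortical neurons from P0 C57BL/6J mouse pups pretreated with compound at 10 and 1000 nM before 1 μM paclitaxel. Cells fixed and immunostained for MAP2 (processes), synaptophysin (synaptic puncta) and Hoechst, then imaged by automated high-content microscopy at 10×. Neurite outgrowth and synaptogenesis scored from multiparameter image analysis.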

The test system of data set [4] is primary cortical neurons. The experiment in a line: Synaptogenesis assay of primary cortical neurons (image-based HCS) against paclitaxel-induced neurotoxicity. As to conditions: Mus musculus, Primary cortical neuron; test compound 1000 nM + paclitaxel 1 μM; mean ± SE; read-out: B: Synaptogenesis (% of control) of test compound (1000 nM) + paclitaxel (1 μM). Type of data set: cell-based, mouse. In outline:
as §1

The subject of the next data set is mice. The arrangement: method as in PMID 28349969. As to conditions: cited from earlier work.
Where [5] appears, read: Table S2, test compound 1000 nM + paclitaxel 50 nM minus paclitaxel 50 nM, read-out: Neuroprotection rate = (A-B) ± S.E.M [%].
The mark [6] stands for this setting: supplementary CSV, test compound 1000 nM, read-out: A-B (A: neurite outgrowth (% of control) of test compound (1000 nM) + paclitaxel (50 nM), B: of paclitaxel (50 nM)).

Structures can show the parent of a compound that is named as a salt. Where two headings read alike, the source gives them in different places.

As for `CC(=O)O[C@H]1C(=O)[C@@]2(C)[C@H]([C@H](OC(=O)c3ccccc3)[C@]3(O)C[C@H](OC(=O)[C@H](O)[C@@H](NC(=O)c4ccccc4)c4ccccc4)C(C)=C1C3(C)C)[C@]1(OC(C)=O)CO[C@@H]1C[C@@H]2O` [paclitaxel, Paclitaxel], the “reduction in neurite outgrowth compared to the control” value in data set [1] (50 nM paclitaxel, DRG neurons) was 60%. For the same molecule, in the data set on sciatic nerve fibers, the “fiber loss (myelinated fiber density)” value is recorded as 25%.
Turning to `Nc1cc(N2CCCCC2)nc(N)[n+]1[O-]` [Minoxidil, reference compound], the activation at 1 µM in data set [1] (Table 1, A: neurite outgrowth (% of control) of test compound 1000 nM + paclitaxel 50 nM, B: paclitaxel 50 nM alone, DRG neurons, read-out: Neuroprotection rate = (A-B)±S.E.M [%]) came out at 15 ± 1.41%. In addition, the “protective effect on paclitaxel-induced neuropathy in behavior tests” value in data set [2] is given as “no protective effect”. In addition, the activity at 1 µM with primary cortical neurons [3] was determined as 66 ± 3%; in the data set on primary cortical neurons [4], 58 ± 8%. Also, the dose causing hypotension with mice was 50 mg/kg. In addition, the dose causing tachycardia in the data set on mice is given as 25 mg/kg.
With `COCCCn1cc(CNc2nc(NC3CCN(CCC(=O)OC)CC3)cc(N3CCOCC3)n2)nn1` [CN010, 3-[4-(2-{[1-(3-Methoxy-propyl)-1H-[1,2,3]triazol-4-ylmethyl]-amino}-6-morpholin-4-yl-pyrimidin-4-ylamino)-piperidin-1-yl]-propionic Acid Methyl Ester], the activation at 1 µM worked out at 5 ± 3.06% in data set [1] (setting [5]) and 5% in data set [1] (setting [6]).
As for `CSCCCn1cc(CNc2nc(NC3CCN(Cc4ccccc4)CC3)cc(N3CCOCC3)n2)nn1` [CN003, N4-(1-Benzyl-piperidin-4-yl)-N2-[1-(3-methylsulfanyl-propyl)-1H-[1,2,3]triazol-4-ylmethyl]-6-morpholin-4-yl-pyrimidine-2,4-diamine], the activation at 1 µM in data set [1] (setting [5]) was 1 ± 2.6%; in data set [1] (setting [6]), 1%.
For `O=C(CCNC(=O)C1(O)CC(O)C(O)C(O)C1)N1CCC(Nc2cc(N3CCOCC3)nc(NCc3cn(CCCNCCO)nn3)n2)CC1` (centres unmarked) [CN007, 1,3,4,5-Tetrahydroxy-cyclohexanecarboxylic Acid (3-{4-[2-({1-[3-(2-Hydroxy-ethylamino)-propyl]-1H-[1,2,3]triazol-4-ylmethyl}-amino)-6-morpholin-4-yl-pyrimidin-4-ylamino]-piperidin-1-yl}-3-oxo-propyl)-amide Hydrochloride Salt], in that order: 7 ± 1.05% and 7%.
